Reference: patent publication US20240294522A1 (Lead Discovery Center GmbH, priority 2021, published 2024)

Key:
GRK2 = molecular target: T1, GRK2 (Homo sapiens, UniProt P25098); experiment: Lance Kinase Activity Assay, GRK2; conditions: biochemical Lance kinase activity assay; class symbols A-F; read-out: GRK2 LANCE Assay (IC-50)
T1 construct: purchased Thermo Scientific
T1 sequence (P25098 1-689): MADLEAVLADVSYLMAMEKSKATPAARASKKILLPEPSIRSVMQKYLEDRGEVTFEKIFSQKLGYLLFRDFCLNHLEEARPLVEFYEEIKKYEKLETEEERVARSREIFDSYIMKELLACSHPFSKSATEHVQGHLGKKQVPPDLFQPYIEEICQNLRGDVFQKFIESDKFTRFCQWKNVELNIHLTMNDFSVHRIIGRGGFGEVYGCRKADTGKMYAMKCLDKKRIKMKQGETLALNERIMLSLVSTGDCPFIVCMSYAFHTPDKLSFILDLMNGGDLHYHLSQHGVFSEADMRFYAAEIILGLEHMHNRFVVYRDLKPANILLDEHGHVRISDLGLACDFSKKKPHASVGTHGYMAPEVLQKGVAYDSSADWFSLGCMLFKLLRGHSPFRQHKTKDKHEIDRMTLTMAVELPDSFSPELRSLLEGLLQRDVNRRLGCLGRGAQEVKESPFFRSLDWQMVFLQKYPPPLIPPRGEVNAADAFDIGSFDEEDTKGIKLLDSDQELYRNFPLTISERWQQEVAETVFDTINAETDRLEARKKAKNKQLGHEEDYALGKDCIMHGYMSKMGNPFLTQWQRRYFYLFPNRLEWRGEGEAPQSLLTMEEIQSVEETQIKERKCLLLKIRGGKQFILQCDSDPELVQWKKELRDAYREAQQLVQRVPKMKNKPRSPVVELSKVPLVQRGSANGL
In short: (§1)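 IC50s from sigmoidal dose-response over 0.0025-10 μM compound, with phosphorylated ULight substrate detected by Eu anti-phospho antibody FRET after EDTA quench.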

GRK5 = molecular target: T2, GRK5 (Homo sapiens, UniProt P34947); experiment: Lance Kinase Activity Assay, GRK5; conditions: biochemical Lance kinase activity assay; class symbols A-F; read-out: GRK5 LANCE Assay (IC-50)
T2 construct: purchased Thermo Scientific
T2 sequence (P34947 whole entry): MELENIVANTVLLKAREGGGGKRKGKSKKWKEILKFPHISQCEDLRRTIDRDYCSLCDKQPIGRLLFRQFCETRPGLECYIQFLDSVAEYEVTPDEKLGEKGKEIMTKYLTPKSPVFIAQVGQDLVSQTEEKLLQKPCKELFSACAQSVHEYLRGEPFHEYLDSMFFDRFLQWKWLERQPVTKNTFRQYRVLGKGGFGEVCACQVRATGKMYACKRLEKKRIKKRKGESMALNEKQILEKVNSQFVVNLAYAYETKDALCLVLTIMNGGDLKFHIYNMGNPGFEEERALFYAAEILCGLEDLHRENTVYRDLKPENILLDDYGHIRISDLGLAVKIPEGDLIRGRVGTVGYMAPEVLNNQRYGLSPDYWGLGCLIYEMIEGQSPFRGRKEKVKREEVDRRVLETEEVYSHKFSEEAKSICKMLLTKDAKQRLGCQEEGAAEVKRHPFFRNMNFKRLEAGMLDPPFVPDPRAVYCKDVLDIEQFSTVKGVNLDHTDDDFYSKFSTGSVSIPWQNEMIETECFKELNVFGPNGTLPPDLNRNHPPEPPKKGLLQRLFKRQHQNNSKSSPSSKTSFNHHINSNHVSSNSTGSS
In short: as §1

| SMILES | IC50 (GRK2) [nM] | IC50 (GRK5) [nM] |
| --- | --- | --- |
| COc1ccc([C@@H](C)NC(=O)/C(C#N)=C/c2c[nH]c3ncc(N4CCOCC4)cc23)cc1OC [Example 84, (R,E)-2-cyano-N-(1-(3,4-dimethoxyphenyl)ethyl)-3-(5-morpholino-1H-pyrrolo[2,3-b]pyridin-3-yl)acrylamide] | 1000 to 10000 | ≤ 50 |
| COc1ccc([C@@H](C)NC(=O)/C(C#N)=C/c2c[nH]c3ncc(N4CCN(C)CC4)cc23)cc1OC [Example 85] | > 10000 | ≤ 50 |
| COc1ccc([C@@H](C)NC(=O)/C(C#N)=C/c2c[nH]c3ncc(C#N)cc23)cc1OC [Example 86, (R,E)-2-cyano-3-(5-cyano-1H-pyrrolo[2,3-b]pyridin-3-yl)-N-(1-(3,4-dimethoxyphenyl)ethyl)acrylamide] | > 10000 | 100 to 500 |
| COc1ccc([C@@H](C)NC(=O)/C(C#N)=C/c2c[nH]c3ncc(C)cc23)cc1OC [Example 87, (R,E)-2-cyano-N-(1-(3,4-dimethoxyphenyl)ethyl)-3-(5-methyl-1H-pyrrolo[2,3-b]pyridin-3-yl)acrylamide] | 500 to 1000 | ≤ 50 |
| COc1ccc([C@@H](C)NC(=O)/C(C#N)=C/c2c[nH]c3ncc(Nc4ccccc4)cc23)cc1OC [Example 88, (R,E)-2-cyano-N-(1-(3,4-dimethoxyphenyl)ethyl)-3-(5-(phenylamino)-1H-pyrrolo[2,3-b]pyridin-3-yl)acrylamide] | 1000 to 10000 | ≤ 50 |
| COc1ccc([C@@H](C)NC(=O)/C(C#N)=C/c2c[nH]c3nc(Br)ccc23)cc1OC [Example 90, (R,E)-3-(6-bromo-1H-pyrrolo[2,3-b]pyridin-3-yl)-2-cyano-N-(1-(3,4-dimethoxyphenyl)ethyl)acrylamide] | > 10000 | 100 to 500 |
| C[C@@H](NC(=O)/C(C#N)=C/c1c[nH]c2ncc(-c3cnn(C)c3)cc12)c1ccccc1 [Example 91, (R,E)-2-cyano-3-(5-(1-methyl-1H-pyrazol-4-yl)-1H-pyrrolo[2,3-b]pyridin-3-yl)-N-(1-phenylethyl)acrylamide] | 100 to 500 | ≤ 50 |
| C[C@@H](NC(=O)/C(C#N)=C/c1c[nH]c2ncc(-c3cnn(C)c3)cc12)c1ccc(F)cc1 [Example 93, (R,E)-2-cyano-N-(1-(4-fluorophenyl)ethyl)-3-(5-(1-methyl-1H-pyrazol-4-yl)-1H-pyrrolo[2,3-b]pyridin-3-yl)acrylamide] | 100 to 500 | ≤ 50 |
| C[C@@H](NC(=O)/C(C#N)=C/c1c[nH]c2ncc(-c3cnn(C)c3)cc12)c1ccc(Cl)cc1 [Example 95, (R,E)-N-(1-(4-chlorophenyl)ethyl)-2-cyano-3-(5-(1-methyl-1H-pyrazol-4-yl)-1H-pyrrolo[2,3-b]pyridin-3-yl)acrylamide] | 1000 to 10000 | 50 to 100 |
| C[C@@H](NC(=O)/C(C#N)=C/c1c[nH]c2ncc(-c3cnn(C)c3)cc12)c1cccc(Cl)c1 [Example 96, (R,E)-N-(1-(3-chlorophenyl)ethyl)-2-cyano-3-(5-(1-methyl-1H-pyrazol-4-yl)-1H-pyrrolo[2,3-b]pyridin-3-yl)acrylamide] | 100 to 500 | ≤ 50 |
| Cc1c(-c2cnn(C)c2)cnc2[nH]cc(/C=C(\C#N)C(=O)N[C@H](C)c3ccccc3)c12 [Example 97, (R,E)-2-cyano-3-(4-methyl-5-(1-methyl-1H-pyrazol-4-yl)-1H-pyrrolo[2,3-b]pyridin-3-yl)-N-(1-phenylethyl)acrylamide] | 500 to 1000 | 500 to 1000 |
| Cc1c(-c2cnn(C)c2)cnc2[nH]cc(/C=C(\C#N)C(=O)N[C@H](C)c3ccc(F)cc3)c12 [Example 98, (R,E)-2-cyano-N-(1-(4-fluorophenyl)ethyl)-3-(4-methyl-5-(1-methyl-1H-pyrazol-4-yl)-1H-pyrrolo[2,3-b]pyridin-3-yl)acrylamide] | 500 to 1000 | 500 to 1000 |
| COc1ccc([C@@H](C)NC(=O)/C(C#N)=C/c2c[nH]c3ncc(-c4cnn(C)c4)c(C)c23)cc1OC [Example 99, (R,E)-2-cyano-N-(1-(3,4-dimethoxyphenyl)ethyl)-3-(4-methyl-5-(1-methyl-1H-pyrazol-4-yl)-1H-pyrrolo[2,3-b]pyridin-3-yl)acrylamide] | > 10000 | 100 to 500 |
| Cc1c(-c2cnn(C)c2)cnc2[nH]cc(/C=C(\C#N)C(=O)N[C@H](C)c3ccc(Cl)cc3)c12 [Example 100, (R,E)-N-(1-(4-chlorophenyl)ethyl)-2-cyano-3-(4-methyl-5-(1-methyl-1H-pyrazol-4-yl)-1H-pyrrolo[2,3-b]pyridin-3-yl)acrylamide] | 1000 to 10000 | 500 to 1000 |
| COc1ccc([C@@H](C)NC(=O)/C(C#N)=C/c2c[nH]c3ncc(OCc4cc(C)nn4C)cc23)cc1OC [Example 101, (R,E)-2-cyano-N-(1-(3,4-dimethoxyphenyl)ethyl)-3-(5-((1,3-dimethyl-1H-pyrazol-5-yl)methoxy)-1H-pyrrolo[2,3-b]pyridin-3-yl)acrylamide] | > 10000 | 50 to 100 |
| COc1ccc([C@@H](C)NC(=O)/C(C#N)=C/c2c[nH]c3ncc(OC(C)C)cc23)cc1OC [Example 102, (R,E)-2-cyano-N-(1-(3,4-dimethoxyphenyl)ethyl)-3-(5-isopropoxy-1H-pyrrolo[2,3-b]pyridin-3-yl)acrylamide] | > 10000 | ≤ 50 |
| COc1ccc([C@@H](C)NC(=O)/C(C#N)=C/c2c[nH]c3ncc(OC4CCOC4)cc23)cc1OC (stereo partly drawn) [Example 103, (E)-2-cyano-N-((R)-1-(3,4-dimethoxyphenyl)ethyl)-3-(5-((tetrahydrofuran-3-yl)oxy)-1H-pyrrolo[2,3-b]pyridin-3-yl)acrylamide] | 1000 to 10000 | ≤ 50 |
| COc1ccc([C@@H](C)NC(=O)/C(C#N)=C/c2c[nH]c3ncc(OC4CCS(=O)(=O)CC4)cc23)cc1OC [Example 105, (R,E)-2-cyano-N-(1-(3,4-dimethoxyphenyl)ethyl)-3-(5-((1,1-dioxidotetrahydro-2H-thiopyran-4-yl)oxy)-1H-pyrrolo[2,3-b]pyridin-3-yl)acrylamide] | 1000 to 10000 | ≤ 50 |
| COc1ccc([C@@H](C)NC(=O)/C(C#N)=C/c2c[nH]c3ncc(OCc4nccn4C)cc23)cc1OC [Example 106, (R,E)-2-cyano-N-(1-(3,4-dimethoxyphenyl)ethyl)-3-(5-((1-methyl-1H-imidazol-2-yl)methoxy)-1H-pyrrolo[2,3-b]pyridin-3-yl)acrylamide] | 1000 to 10000 | ≤ 50 |
| COc1ccc([C@@H](C)NC(=O)/C(C#N)=C/c2c[nH]c3ncc(O[C@@H]4CCOC4)cc23)cc1OC [Example 107, (E)-2-cyano-N-((R)-1-(3,4-dimethoxyphenyl)ethyl)-3-(5-(((R)-tetrahydrofuran-3-yl)oxy)-1H-pyrrolo[2,3-b]pyridin-3-yl)acrylamide] | 500 to 1000 | ≤ 50 |
| COc1ccc([C@@H](C)NC(=O)/C(C#N)=C/c2c[nH]c3ncc(O[C@H]4CCOC4)cc23)cc1OC [Example 108, (E)-2-cyano-N-((R)-1-(3,4-dimethoxyphenyl)ethyl)-3-(5-(((S)-tetrahydrofuran-3-yl)oxy)-1H-pyrrolo[2,3-b]pyridin-3-yl)acrylamide] | 1000 to 10000 | ≤ 50 |
| CC[C@H](C)Oc1cnc2[nH]cc(/C=C(\C#N)C(=O)N[C@H](C)c3ccc(OC)c(OC)c3)c2c1 [Example 109, (E)-3-(5-((S)-sec-butoxy)-1H-pyrrolo[2,3-b]pyridin-3-yl)-2-cyano-N-((R)-1-(3,4-dimethoxyphenyl)ethyl)acrylamide] | > 10000 | ≤ 50 |
| COc1ccc([C@@H](C)NC(=O)/C(C#N)=C/c2c[nH]c3ncc(OC4CCOCC4)cc23)cc1OC [Example 111, (R,E)-2-cyano-N-(1-(3,4-dimethoxyphenyl)ethyl)-3-(5-((tetrahydro-2H-pyran-4-yl)oxy)-1H-pyrrolo[2,3-b]pyridin-3-yl)acrylamide] | 1000 to 10000 | ≤ 50 |
| COc1ccc([C@@H](C)NC(=O)/C(C#N)=C/c2c[nH]c3ncc(-c4ccc(N5CCN(C)CC5)cc4)cc23)cc1OC [Example 112, (R,E)-2-cyano-N-(1-(3,4-dimethoxyphenyl)ethyl)-3-(5-(4-(4-methylpiperazin-1-yl)phenyl)-1H-pyrrolo[2,3-b]pyridin-3-yl)acrylamide] | 500 to 1000 | ≤ 50 |
| COc1ccc([C@@H](C)NC(=O)/C=C/c2c[nH]c3ncc(-c4cccc(S(C)(=O)=O)c4)cc23)cc1OC [Example 114, (R,E)-N-(1-(3,4-dimethoxyphenyl)ethyl)-3-(5-(3-(methylsulfonyl)phenyl)-1H-pyrrolo[2,3-b]pyridin-3-yl)acrylamide] | 1000 to 10000 | ≤ 50 |
| COc1ccc([C@@H](C)NC(=O)/C=C/c2c[nH]c3ncc(-c4cc(F)cc(F)c4)cc23)cc1OC [Example 115, (R,E)-3-(5-(3,5-difluorophenyl)-1H-pyrrolo[2,3-b]pyridin-3-yl)-N-(1-(3,4-dimethoxyphenyl)ethyl)acrylamide] | > 10000 | 100 to 500 |
